Reference: ChEMBL document CHEMBL1201862, “PubChem BioAssay data set” (2004)
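Compound exposure: 48 hours, 5 concentrations, 96-well plates. At the GI50, growth is halved.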 Calls of active or inactive are those of the source. No stated cut-off is given here; in the data, active = GI50 up to about 1.1 µM and inactive = higher.

Experiments:
Experiment in all cases: DTP human tumour cell line panel, 48 h
Hs-578T = test system: Hs-578T
HCC 2998 = test system: HCC 2998
M14 = test system: M14
OVCAR-8 = test system: OVCAR-8
MDA-MB-231 = test system: MDA-MB-231
IGROV-1 = test system: IGROV-1
HOP-62 = test system: HOP-62
DU-145 = test system: DU-145
A549 = test system: A549
RXF 393 = test system: RXF 393
Malme-3M = test system: Malme-3M
SK-MEL-5 = test system: SK-MEL-5
COLO 205 = test system: COLO 205
CCRF-CEM = test system: CCRF-CEM
SK-OV-3 = test system: SK-OV-3
OVCAR-3 = test system: OVCAR-3
OVCAR-5 = test system: OVCAR-5
SN12C = test system: SN12C
SF-268 = test system: SF-268
SR = test system: SR

Measured: GI50

Nc1ccn(C2OC(COC(=O)C34CC5CC(CC(C5)C3)C4)C(O)C2O)c(=O)n1 (configuration not stated)
active: M14 0.817 µM | HOP-62 0.973 µM | A549 0.773 µM | CCRF-CEM 0.101 µM
inactive: Hs-578T > 100 µM | HCC 2998 > 69.3 µM | OVCAR-8 24.2 µM | MDA-MB-231 > 100 µM | IGROV-1 > 100 µM | DU-145 > 100 µM | RXF 393 > 100 µM | Malme-3M > 100 µM | SK-MEL-5 > 100 µM | COLO 205 59 µM | SK-OV-3 > 79.8 µM | OVCAR-3 > 100 µM | OVCAR-5 > 100 µM | SN12C > 100 µM | SF-268 > 50.5 µM

COc1c(C(=O)CC2c3c(cc4oc(C)cc(=O)c4c3OC)OC(=N)C2c2nc3ccccc3[nH]2)c(O)c(OC)c2occc12 (configuration not stated)
inactive: Hs-578T > 100 µM | HCC 2998 > 100 µM | M14 > 100 µM | OVCAR-8 > 100 µM | MDA-MB-231 > 100 µM | IGROV-1 > 100 µM | HOP-62 > 100 µM | DU-145 > 100 µM | A549 > 100 µM | RXF 393 > 100 µM | Malme-3M > 100 µM | SK-MEL-5 > 100 µM | COLO 205 > 100 µM | CCRF-CEM > 100 µM | SK-OV-3 > 100 µM | OVCAR-3 > 100 µM | OVCAR-5 > 100 µM | SN12C > 100 µM | SF-268 > 100 µM

CC1C(c2ccc(Cl)cc2)c2cc3c(cc2OC1N1CCOCC1)OCO3 (configuration not stated)
inactive: Hs-578T 23.9 µM | HCC 2998 > 100 µM | M14 85.3 µM | OVCAR-8 > 100 µM | IGROV-1 > 100 µM | HOP-62 79.4 µM | DU-145 > 100 µM | A549 75.7 µM | SK-MEL-5 51.3 µM | COLO 205 > 100 µM | CCRF-CEM 92.9 µM | OVCAR-3 85.3 µM | OVCAR-5 > 100 µM | SN12C > 100 µM | SF-268 > 100 µM
active: SR 0.931 µM

Cc1ccc(-n2cnc3c(N)nc(N)nc32)cc1
inactive: Hs-578T 42.7 µM | HCC 2998 76.2 µM | M14 > 100 µM | OVCAR-8 > 100 µM | MDA-MB-231 > 100 µM | IGROV-1 > 100 µM | HOP-62 > 100 µM | DU-145 > 100 µM | A549 69.5 µM | RXF 393 43.6 µM | Malme-3M > 100 µM | SK-MEL-5 > 100 µM | COLO 205 > 100 µM | CCRF-CEM 43.1 µM | SK-OV-3 > 100 µM | OVCAR-3 > 100 µM | OVCAR-5 > 100 µM | SN12C > 100 µM | SF-268 > 100 µM

O=C1CCCc2ccc3c(c21)CC1(Cc2ccccc2C1)C3
inactive: Hs-578T 25.9 µM | HCC 2998 41.5 µM | M14 34.6 µM | OVCAR-8 34.2 µM | MDA-MB-231 27.5 µM | IGROV-1 50.9 µM | HOP-62 39.1 µM | A549 34.7 µM | RXF 393 33.3 µM | Malme-3M 33.2 µM | SK-MEL-5 18.5 µM | COLO 205 17.2 µM | SK-OV-3 53.5 µM | OVCAR-3 33.5 µM | OVCAR-5 31 µM | SN12C 26.1 µM

Cn1c(S)nc2c(Cl)cc(Cl)cc2c1=O
inactive: Hs-578T > 100 µM | HCC 2998 > 100 µM | M14 > 100 µM | OVCAR-8 > 100 µM | MDA-MB-231 > 100 µM | IGROV-1 80.5 µM | HOP-62 > 100 µM | DU-145 > 100 µM | A549 > 100 µM | RXF 393 > 100 µM | SK-MEL-5 99.5 µM | COLO 205 > 100 µM | CCRF-CEM 24.8 µM | SK-OV-3 74 µM | OVCAR-3 > 100 µM | OVCAR-5 > 100 µM | SN12C > 100 µM | SF-268 > 100 µM

CN(C(=O)Cc1cc(Cl)c(Cl)cc1NC(=O)CCCN)[C@H]1CCCC[C@@H]1N1CCCC1
inactive: HCC 2998 16.6 µM | M14 19 µM | OVCAR-8 > 100 µM | MDA-MB-231 28.3 µM | IGROV-1 > 100 µM | HOP-62 > 100 µM | DU-145 > 100 µM | A549 29.5 µM | RXF 393 16.1 µM | Malme-3M 17.1 µM | SK-MEL-5 16.1 µM | COLO 205 17.9 µM | SK-OV-3 95.5 µM | OVCAR-3 > 100 µM | OVCAR-5 37.8 µM | SN12C 63.5 µM | SF-268 13.9 µM | SR 34.8 µM

N=C(c1ccc2ccccc2c1)c1ccccc1Cc1ccccc1
inactive: HCC 2998 31.8 µM | M14 58.1 µM | OVCAR-8 44 µM | MDA-MB-231 > 100 µM | IGROV-1 35.9 µM | HOP-62 39.6 µM | DU-145 29.8 µM | A549 27.7 µM | RXF 393 5.97 µM | SK-MEL-5 37.2 µM | COLO 205 > 100 µM | CCRF-CEM 19.5 µM | SK-OV-3 43 µM | OVCAR-3 22.1 µM | OVCAR-5 36.8 µM | SN12C 34.8 µM | SR 19.9 µM

CC1/C(=N/O)CC(c2ccccc2)N(N=O)C1c1ccccc1 (configuration not stated)
inactive: Hs-578T > 100 µM | HCC 2998 > 100 µM | M14 > 100 µM | OVCAR-8 > 100 µM | MDA-MB-231 > 100 µM | IGROV-1 > 100 µM | HOP-62 > 100 µM | DU-145 > 100 µM | A549 > 100 µM | RXF 393 > 100 µM | Malme-3M > 100 µM | SK-MEL-5 > 100 µM | COLO 205 > 100 µM | CCRF-CEM > 100 µM | SK-OV-3 82.4 µM | OVCAR-3 > 100 µM | SN12C > 100 µM | SF-268 > 100 µM

CC(C)(Br)C(Br)CCC1(C2CO2)CO1 (configuration not stated)
inactive: Hs-578T > 5 µM | HCC 2998 > 5 µM | M14 > 5 µM | OVCAR-8 > 5 µM | MDA-MB-231 > 5 µM | IGROV-1 > 5 µM | HOP-62 > 5 µM | DU-145 > 5 µM | A549 > 5 µM | RXF 393 > 5 µM | Malme-3M > 5 µM | SK-MEL-5 > 5 µM | COLO 205 > 5 µM | CCRF-CEM > 5 µM | SK-OV-3 > 5 µM | OVCAR-3 > 5 µM | SN12C > 5 µM | SF-268 > 5 µM

N#Cc1c(N)nc2c(C#N)c(N)cc3c2c1Oc1ccccc1-3
inactive: Hs-578T > 100 µM | HCC 2998 > 100 µM | M14 > 100 µM | OVCAR-8 > 100 µM | MDA-MB-231 > 100 µM | IGROV-1 > 100 µM | HOP-62 > 100 µM | DU-145 > 100 µM | A549 > 100 µM | RXF 393 > 100 µM | Malme-3M > 100 µM | SK-MEL-5 > 100 µM | COLO 205 > 100 µM | CCRF-CEM > 100 µM | SK-OV-3 > 100 µM | OVCAR-3 > 100 µM | OVCAR-5 > 100 µM | SN12C > 100 µM | SF-268 > 100 µM

CN(Cc1ccccc1)c1cc(=O)n(C)c(=O)[nH]1
inactive: Hs-578T > 100 µM | HCC 2998 > 100 µM | M14 > 100 µM | OVCAR-8 > 100 µM | MDA-MB-231 > 100 µM | DU-145 > 100 µM | A549 > 100 µM | Malme-3M > 100 µM | SK-MEL-5 > 100 µM | COLO 205 > 100 µM | CCRF-CEM 62.2 µM | SK-OV-3 > 100 µM | OVCAR-3 > 100 µM | OVCAR-5 > 100 µM | SN12C > 100 µM | SF-268 > 100 µM

[N-]=[N+]=CC(=O)OCCCCl
inactive: HCC 2998 > 100 µM | MDA-MB-231 > 100 µM | IGROV-1 > 100 µM | HOP-62 > 100 µM | DU-145 > 100 µM | RXF 393 > 100 µM | Malme-3M > 100 µM | SK-MEL-5 > 100 µM | COLO 205 > 100 µM | CCRF-CEM > 100 µM | SK-OV-3 > 100 µM | OVCAR-3 > 100 µM | OVCAR-5 > 100 µM | SN12C > 100 µM | SF-268 > 100 µM | SR 4.25 µM

O=C1C=CC(=O)c2c(O)nc(CBr)nc21
inactive: Hs-578T > 100 µM | HCC 2998 > 100 µM | M14 61.5 µM | OVCAR-8 > 100 µM | MDA-MB-231 61 µM | IGROV-1 > 100 µM | HOP-62 > 100 µM | DU-145 > 100 µM | A549 > 100 µM | RXF 393 > 100 µM | Malme-3M > 100 µM | SK-MEL-5 44.9 µM | COLO 205 > 100 µM | SK-OV-3 > 100 µM | OVCAR-3 > 100 µM | OVCAR-5 > 100 µM | SN12C 38.5 µM | SF-268 > 100 µM

COc1c2nc(CCl)n(C)c(=O)c2c(OC)c2c(=O)n(C)c(CCl)nc12
inactive: Hs-578T 4.27 µM | HCC 2998 1.34 µM | OVCAR-8 2.67 µM | MDA-MB-231 1.55 µM | IGROV-1 1.94 µM | HOP-62 1.87 µM | DU-145 3.4 µM | A549 3.08 µM | RXF 393 2.07 µM | Malme-3M 1.76 µM | SK-MEL-5 1.92 µM | COLO 205 1.41 µM | OVCAR-3 1.84 µM | OVCAR-5 2.3 µM | SN12C 1.69 µM | SF-268 1.48 µM
active: CCRF-CEM 0.354 µM

O=S(=O)(F)Cc1ccccc1 [PHENYLMETHYLSULFONYLFLUORIDE]
inactive: HCC 2998 > 100 µM | M14 > 100 µM | OVCAR-8 > 100 µM | MDA-MB-231 > 100 µM | IGROV-1 > 100 µM | HOP-62 > 100 µM | DU-145 > 100 µM | A549 > 100 µM | SK-MEL-5 > 100 µM | COLO 205 > 100 µM | CCRF-CEM > 100 µM | SK-OV-3 > 100 µM | OVCAR-3 > 100 µM | OVCAR-5 > 100 µM | SN12C > 100 µM | SF-268 > 100 µM | SR > 100 µM
active: Malme-3M 0.486 µM
